In patent US4011328A, “Derivatives of pyridine-3-acetic acid, process for their preparation and applications thereof” (SERDEX - Societe d'Etudes, de Recherches, de Diffusion et …, priority 1973, dated 1977):

Legend:
Type in all cases: in vivo
[1] = tested on: Turfyl nicotinate (Trafuril)-induced erythema; test: Erythema with Turfyl nicotinate (Trafuril), anti-inflammatory power; settings: Cavia porcellus, po; male albino guinea-pigs; buccally 1 hour before test; result at the end of 5 minutes
Procedure: (§1) b. Anti-inflammatory power.
2. Erythema with Turfyl nicotinate(Trafuril).
The NAINING method is used (Br.jl.Pharmacol. 1963-21-104-12), slightly modified:
The test is carried out on homogeneous groups of six to 12 male albino guinea-pigs weighing 300-400 g, the skin of the back having been carefully plucked the day before.
On the day of the test an antibiogramme disc saturated with an alcoholic solution at 5% of Turfyl nicotinate is applied to the lumbar region for 1 minute.
The result is observed at the end of 5 minutes.
The results are recorded on an "all or nothing" basis, according to which an erythema appears at the place in which the disc was applied.
The treatment is administered buccally 1 hour before the test, with a uniform volume of 1 ml per kg of body weight; the products are placed in homogeneous suspension by the aid of 3% of gum arabic.
The pilot animals are given an equal volume of vehicle.
The percentage of erythema produced in the treated animals is compared with that of the pilot group observed at the same time.

[2] = tested on: 2-phenyl-1,4-benzoquinone-induced stretching of the rear feet and torsion of the trunk; test: Siegmund test, analgesic power: phenylbenzoquinone-induced stretchings/torsions; settings: Mus musculus, ip; mice; substance given 1 hour before intraperitoneal phenylbenzoquinone; observed 5th-10th minute
Procedure: The intraperitoneal injection of 0.25 ml of a hydroalcoholic solution of 2-phenyl-1,4-benzoquinone at a concentration of 0.02% produces in mice a particular syndrom characterized by the stretching of the rear feet and the torsion of the trunk.
The test is carried out on homogeneous groups of 20 to 30 mice with an average weight of 20 g.
The substance to be studied is administered to them at the time "0." One hour later the phenylbenzoquinone is administered intraperitoneally. The animals are observed individually for 5 minutes, between the 5th and 10th minute following the injection of the phenyl benzoquinone. The number of stretchings performed by each animal during the observation period is noted.
The percentage of activity of the substance is calculated by comparing the number of torsions performed by the animals and those performed by pilot animals.

[3] = tested on: carragheen-induced localized oedema; test: Acute oedema with carragheen, anti-inflammatory power; settings: Rattus norvegicus, po; male rats; buccally 1 hour before carragheen; oedema 3 hours after carragheen
Procedure: as §1
1. Acute oedema with carragheen.
(Winster C. A., Risley R. A., Nuss G. W. -- Proc.Soc.Biol. Med.1962,3,544-7).
The injection, under the arch of the rat's foot, of 0.05 ml of an aqueous gel with 1% carragheen produces a localized oedema which can be measured with an electric plethysmometer of the mercury type.
The percentage of inflammation can be calculated by measuring the volume of the […] foot before and 3 hours after the carragheen injection.
The treatment is given buccally, 1 hour before the carragheen.
The test is carried out on homogeneous groups of ten male rats of 180 ± 10 g.
For each animal the oedema is measured as follows: [formula]
When the percentage of oedema is known for the pilot group, the protection observed under the effect of the substance tested is deducted therefrom for the treated groups.

SMILES	ED50 [1]	ED50 [2]	ED50 [3]
Cc1ccc2c(c1)-c1nc(C)c(CC(=O)O)cc1CO2 [Example 1]	78 mg/kg	150 mg/kg	16 mg/kg
COc1ccc(-c2nc(C)c(CC(=O)O)cc2-c2ccc(Cl)cc2)cc1 [Example 3]	5.2 mg/kg	0.9 mg/kg	28 mg/kg
